Consider twelve compounds from patent US20250295799A1, “ANTIBODY-DRUG CONJUGATES TARGETING GLYPICAN-3 AND METHODS OF USE” (Zymeworks BC Inc., priority 2022, published 2025).

Data set [1] relates to MDA-MB-468 (breast cancer). The experiment in a line: In vitro cytotoxicity of camptothecin analogues (CellTiter-Glo). It counts as cell-based. The note with it: Homo sapiens, MDA-MB-468, 96 h, read-out: pIC50 MDA-MB-468 (converted). As for the experimental part:
(§1) In vitro potency was assessed on multiple cancer cell lines: SK-BR-3 (breast cancer), SKOV-3 (ovarian cancer), Calu-3 (lung cancer), ZR-75-1 (breast cancer) and MDA-MB-468 (breast cancer). Serial dilutions of camptothecin analogues were prepared in RPMI 1640+10% FBS, and 20 μL of each dilution was added to 384-well plates. Cells cultured in log-phase growth were detached by brief incubation in 0.05% Trypsin and resuspended in respective culturing media at 20,000 cells/mL (with the exception of ZR-75 cells, which were resuspended at 10,000 cells/mL). 50 μL of cell suspension was then added to the plates containing test articles. Cells were incubated with test articles for 4 d at 37° C. (with the exception of ZR-75 cells, which were incubated for 5 d). Growth inhibition was assessed by CellTiter-Glo® (Promega Corporation, Madison, WI) and luminescence was measured on a plate reader. IC50 values were determined by GraphPad Prism (GraphPad Software, San Diego CA).
For orientation: Cellular ATP, detected with luciferase, serves as a proxy for viable cell number.

In the next data set the test system is ZR-75-1 (breast cancer). Described as above. It counts as cell-based. As to conditions: Homo sapiens, ZR-75-1, 120 h, read-out: pIC50 ZR-75 (converted). How it is done: as §1
The next data set relates to Calu-3 (lung cancer). The description is as above. As to conditions: Homo sapiens, Calu-3, 96 h, read-out: pIC50 Calu-3 (converted). It counts as cell-based. As for the experimental part: as §1
The test system of another data set is SK-BR-3 (breast cancer). Described as above. It counts as cell-based. As to conditions: Homo sapiens, SK-BR-3, 96 h, read-out: pIC50 SKBR-3 (converted). How it is done:
as §1

For a further data set, the system named is SKOV-3 (ovarian cancer). The description is as above. It counts as cell-based. As to conditions: Homo sapiens, SK-OV-3, 96 h, read-out: pIC50 SKOV-3 (converted). As for the experimental part: as §1
The test system of the next data set is hepatocellular carcinoma. As to conditions: adults with HCC; cited from earlier work.

For the compound `CC[C@@]1(O)C(=O)OCc2c1cc1n(c2=O)Cc2c-1nc1cc(F)c(C)cc1c2CN1CCN(c2ccc(N)cc2)CC1` [Compound 108, (S)-11-((4-(4-aminophenyl)piperazin-1-yl)methyl)-4-ethyl-8-fluoro-4-hydroxy-9-methyl-1,12-dihydro-14H-pyrano[3′,4′:6,7]indolizino[1,2-b]quinoline-3,14(4H)-dione], the IC50 in data set [1] was 47.9 nM; in the data set on ZR-75-1 (breast cancer) it was 18.6 nM; in the data set on Calu-3 (lung cancer), 40.7 nM; in the data set with SK-BR-3 (breast cancer), 29.5 nM; with SKOV-3 (ovarian cancer), 55 nM.
In the same order, the values of `CC[C@@]1(O)C(=O)OCc2c1cc1n(c2=O)Cc2c-1nc1cc(F)c(C)cc1c2CN1CCO[C@@H](CO)C1` [Compound 113, (S)-4-ethyl-8-fluoro-4-hydroxy-11-(((R)-2-(hydroxymethyl)morpholino)methyl)-9-methyl-1,12-dihydro-14H-pyrano[3′,4′:6,7]indolizino[1,2-b]quinoline-3,14(4H)-dione] are 3.39 nM, 2.19 nM, 3.02 nM, 1.95 nM and 4.27 nM.
On to `CC[C@@]1(O)C(=O)OCc2c1cc1n(c2=O)Cc2c-1nc1cc(F)c(C)cc1c2CN1CCSCC1CO` (stereo partly drawn) [Compound 114, (4S)-4-ethyl-8-fluoro-4-hydroxy-11-((3-(hydroxymethyl)thiomorpholino)methyl)-9-methyl-1,12-dihydro-14H-pyrano[3′,4′:6,7]indolizino[1,2-b]quinoline-3,14(4H)-dione], for which the IC50 in data set [1] was 0.417 nM; in the data set on Calu-3 (lung cancer), 0.0933 nM; in the data set on SK-BR-3 (breast cancer) it was 0.107 nM; with SKOV-3 (ovarian cancer), 0.178 nM.
As for `CC[C@@]1(O)C(=O)OCc2c1cc1n(c2=O)Cc2c-1nc1cc(F)c(C)cc1c2CN1C2CCC1(CO)CC2` [Compound 121], the IC50 in data set [1] is 0.269 nM; in the data set on Calu-3 (lung cancer) it was 0.145 nM; in the data set with SK-BR-3 (breast cancer), 0.148 nM; in the data set with SKOV-3 (ovarian cancer) it was 0.195 nM.
`CC[C@@]1(O)C(=O)OCc2c1cc1n(c2=O)Cc2c-1nc1cc(F)c(C)cc1c2CNS(C)(=O)=O` [Compound 122, (S)-N-((4-ethyl-8-fluoro-4-hydroxy-9-methyl-3,14-dioxo-3,4,12,14-tetrahydro-1H-pyrano[3′,4′:6,7]indolizino[1,2-b]quinolin-11-yl)methyl)methanesulfonamide]: the IC50 in data set [1] is 1.1 nM; in the data set with ZR-75-1 (breast cancer), 1.29 nM; in the data set with Calu-3 (lung cancer) it was 3.72 nM; with SK-BR-3 (breast cancer) it was 1.12 nM; in the data set on SKOV-3 (ovarian cancer), 9.12 nM.
In the same order, the values of `CC[C@@]1(O)C(=O)OCc2c1cc1n(c2=O)Cc2c-1nc1cc(F)c(C)cc1c2CNS(=O)(=O)c1ccccc1` [Compound 125, (S)-N-((4-ethyl-8-fluoro-4-hydroxy-9-methyl-3,14-dioxo-3,4,12,14-tetrahydro-1H-pyrano[3′,4′:6,7]indolizino[1,2-b]quinolin-11-yl)methyl)benzenesulfonamide] are 3.8 nM, 1.32 nM, 2.82 nM, 1.32 nM and 7.08 nM.
In the same order, the values of `CC[C@@]1(O)C(=O)OCc2c1cc1n(c2=O)Cc2c-1nc1cc(F)c(C)cc1c2CNS(=O)(=O)c1ccc(N)cc1` [Compound 127, (S)-4-amino-N-((4-ethyl-8-fluoro-4-hydroxy-9-methyl-3,14-dioxo-3,4,12,14-tetrahydro-1H-pyrano[3′,4′:6,7]indolizino[1,2-b]quinolin-11-yl)methyl)benzenesulfonamide] are 3.8 nM, 5.25 nM, 9.33 nM, 3.31 nM and 14.5 nM.
As to `CC[C@@]1(O)C(=O)OCc2c1cc1n(c2=O)Cc2c-1nc1cc(F)c(OC)cc1c2CNS(=O)(=O)c1ccc(N)cc1` [Compound 128, (S)-4-amino-N-((4-ethyl-8-fluoro-4-hydroxy-9-methoxy-3,14-dioxo-3,4,12,14-tetrahydro-1H-pyrano[3′,4′:6,7]indolizino[1,2-b]quinolin-11-yl)methyl)benzenesulfonamide], the IC50 in data set [1] is 8.32 nM; in the data set with ZR-75-1 (breast cancer), 4.27 nM; in the data set with SK-BR-3 (breast cancer), 5.25 nM; in the data set on SKOV-3 (ovarian cancer), 18.2 nM.
In the case of `CC[C@@]1(O)C(=O)OCc2c1cc1n(c2=O)Cc2c-1nc1cc(F)c(C)cc1c2CNS(N)(=O)=O` [Compound 131, (S)-((4-ethyl-8-fluoro-4-hydroxy-9-methyl-3,14-dioxo-3,4,12,14-tetrahydro-1H-pyrano[3′,4′:6,7]indolizino[1,2-b]quinolin-11-yl)methyl)sulfamide], the IC50 in data set [1] is 9.12 nM; in the data set with ZR-75-1 (breast cancer), 0.955 nM; with Calu-3 (lung cancer), 9.12 nM; in the data set on SK-BR-3 (breast cancer), 1.05 nM.
As to `CC[C@@]1(O)C(=O)OCc2c1cc1n(c2=O)Cc2c-1nc1cc(F)c(OC)cc1c2CNC(=O)NCc1ccc(N)cc1` [Compound 135, (S)-1-(4-aminobenzyl)-3-((4-ethyl-8-fluoro-4-hydroxy-9-methoxy-3,14-dioxo-3,4,12,14-tetrahydro-1H-pyrano[3′,4′:6,7]indolizino[1,2-b]quinolin-11-yl)methyl)urea], the IC50 in data set [1] was 10.7 nM; in the data set with ZR-75-1 (breast cancer), 13.2 nM; with SK-BR-3 (breast cancer), 12.3 nM.
For the compound `CC[C@@]1(O)C(=O)OCc2c1cc1n(c2=O)Cc2c-1nc1cc(F)c(N)cc1c2CN=[N+]=[N-]` [Compound 152, (S)-9-amino-11-(azidomethyl)-4-ethyl-8-fluoro-4-hydroxy-1,12-dihydro-14H-pyrano[3′,4′:6,7]indolizino[1,2-b]quinoline-3,14(4H)-dione], the IC50 in data set [1] is 5.01 nM; in the data set with Calu-3 (lung cancer), 1.48 nM; in the data set on SK-BR-3 (breast cancer), 3.24 nM; with SKOV-3 (ovarian cancer), 2.88 nM.
Consider “codrituzumab: "Codrituzumab, also known as GC33 or RG-7686"; antibody targeting GPC3 tested clinically "as a bivalent IgG"; "reference antibody codrituzumab"”, for which, in the data set with hepatocellular carcinoma, the “efficacy in clinical trials, in words” value is listed as “limited efficacy” and the “safety in clinical trials, in words” value is reported as “good safety profile”.
